Target: T1, rat CB2R (Rattus norvegicus, UniProt Q9QZN9)
T1 construct: one spleen from a female SPRD rat expressing high levels of the receptor in the leukocytes; from tissue; host or cells: rat spleen (female SPRD rat; autoradiography also described with male F433 rats)
T1 sequence (Q9QZN9 1-360): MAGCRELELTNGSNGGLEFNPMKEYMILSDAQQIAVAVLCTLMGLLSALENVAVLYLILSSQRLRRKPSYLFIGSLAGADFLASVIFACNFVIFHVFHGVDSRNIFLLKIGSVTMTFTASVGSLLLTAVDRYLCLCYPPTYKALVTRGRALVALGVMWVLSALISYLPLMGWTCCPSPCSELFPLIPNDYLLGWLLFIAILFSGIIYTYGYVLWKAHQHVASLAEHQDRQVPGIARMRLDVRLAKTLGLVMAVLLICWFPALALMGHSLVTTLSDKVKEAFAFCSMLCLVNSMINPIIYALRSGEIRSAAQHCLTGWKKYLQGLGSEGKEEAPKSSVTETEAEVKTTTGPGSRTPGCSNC
Test: In vitro autoradiography on rat spleen cryosections
Format: binding
Conditions: Figure S2
Excerpt: To complement the indirect determination of the affinity of RM365 toward the CB2R in vitro, we performed a direct binding study with the radiofluorinated ligand using preparations of CHO cells stably transfected with the cloned human receptor and one spleen from a female SPRD rat expressing high levels of the receptor in the leukocytes.[12] The results of the homologous competition study shown in Figure 6 confirm the good affinity of [^18F]RM365 toward the human CB2R with a KD value of about 2 nM. […] Furthermore, the measurement signal obtained from the incubation of [^18F]RM365 with the homogenate of rat spleen was in the range of the values obtained for the nonspecific binding of the radioligand toward the preparation of CB2R-transfected CHO cells. We conclude that RM365 binds the rat CB2R with lower affinity than the human CB2R but expect no significant interactions of the radioligand with nonspecific binding sites.[82] Because of the available rat model to assess the potential of [^18F]RM365 to cross the blood–brain barrier and to specifically label human CB2R—the hCB2R(D80N) model with high expression of human CB2R in the brain[31],[32],[66],[83]—we intended to confirm the initial findings from the rat homogenate by an autoradiographic study.
The in vitro autoradiographic experiments were performed according to a previously published protocol.[88] […]

CC1(C)Cc2ccc(C#N)cc2[C@@H]1NC(=O)c1cc2cc([18F])ccc2[nH]1 [[^18F]RM365]
specific interaction with rat CB2R in spleen cryosections, in words: absence of a specific interaction

Reference: PMC10614203, “Synthesis, Structure–Activity Relationships, Radiofluorination, and Biological Evaluation of [^18F]RM365, a Novel Radioligand for Imaging the Human Cannabinoid Receptor Type 2 (CB2R) in the Brain with PET” (Journal of Medicinal Chemistry, 2023)
